Assay results reported in PMC11992225, “Antibacterial compounds against non-growing and intracellular bacteria” (npj Antimicrobials and Resistance, 2025).
Values after ≈ are worked out from the molar mass of the structure shown. Values joined by “and” are separate entries in the source; they are usually repeats but may differ in a detail not shown here. Equal entries are not always repeated. Where two headings read alike, the source gives them in different places.

Assays:
[1] = system: non-growing P. aeruginosa DSM1117; experiment: Dose-dependent killing analysis (CFU spot-plating) of stationary-phase P. aeruginosa; format: cell-based, Pseudomonas aeruginosa; conditions: P. aeruginosa; for log10(CFU/ml) after treatment: individual replicates
In short: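 Stationary-phase P. aeruginosa DSM1117 treated for 24 h in 1:4 CA-MHB, pH 7.4, across compound doses. Survivors counted after 10-fold PBS dilution, spot-plating on LB agar and overnight growth at 37 °C; three biological replicates.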

S. aureus DSM2569 = experiment: MIC, standard microdilution assay, growing S. aureus; format: cell-based, Staphylococcus aureus; conditions: Staphylococcus aureus, DSM2569; S. aureus; CA-MHB pH 7.4; read-out: MIC (μM) CA-MHB
In short: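 Medium: CA-MHB + 40 mM HEPES, pH 7.4 (UPEC, P. aeruginosa, S. aureus); LPM + 30 mM MES, pH 5.5 (UPEC, extra condition); TSB (S. flexneri). Microdilution format, n = 3.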

non-growing UPEC CFT073 [2] = experiment: Dilution-regrowth assay (screen, hit validation, dose-response) on stationary-phase UPEC; format: cell-based, Escherichia coli; conditions: for Regrowth, OD600 at 6h or 8h after dilution into drug-free medium: average; for EC50: Escherichia coli
In short: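 Regrowth (OD600 after 6 h, 37 °C) of diluted non-growing CFT073, following 24 h compound treatment of 24 h stationary cultures, defines activity relative to untreated control. Screen at 20 µM, validation at 20, 10, 5 µM (duplicates), dose–response in three biological replicates fitted by five-parameter logistic.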

non-growing UPEC CFT073 [3] = experiment: Dose-dependent killing analysis (CFU spot-plating) of stationary-phase UPEC; format: cell-based, Escherichia coli; conditions: individual replicates
In short: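 Non-growing (stationary-phase) UPEC CFT073 treated with compounds in 96-well format at 200 μl, then 10-fold serially diluted in PBS and 10 μl spots plated on LB agar. Plates incubated overnight at 37 °C; colonies counted at lowest resolvable dilution to give CFU. Three biological replicates.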

[4] = system: non-growing S. aureus DSM2569; experiment: Dose-dependent killing analysis (CFU spot-plating) of stationary-phase S. aureus; format: cell-based, Staphylococcus aureus; conditions: for log10(CFU/ml) after treatment: S. aureus, individual replicates
In short: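 Stationary-phase S. aureus DSM2569 was grown and treated for 24 h in 1:4 CA-MHB at pH 7.4. Treated samples were serially diluted 10-fold in PBS and spot-plated on LB agar, which was incubated overnight at 37 °C. Survivors were counted as CFU over three biological replicates.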

[5] = E. coli in 1:4 CA-MHB (pH 7.4), concentration 0.25
[6] = E. coli in 1:4 CA-MHB (pH 7.4), concentration 0.5
[7] = E. coli in 1:4 CA-MHB (pH 7.4), concentration 1
[8] = E. coli in 1:4 CA-MHB (pH 7.4), concentration 2.5
[9] = E. coli in 1:4 CA-MHB (pH 7.4), concentration 5
[10] = E. coli in LPM (pH 5.5), concentration 0.25
[11] = E. coli in LPM (pH 5.5), concentration 0.5
[12] = E. coli in LPM (pH 5.5), concentration 1
[13] = E. coli in LPM (pH 5.5), concentration 2.5
[14] = E. coli in LPM (pH 5.5), concentration 5

Compound: CCCCCCCCN=c1ccn(CCCCCCCCCCn2ccc(=NCCCCCCCC)cc2)cc1 [Octenidine]
- log10(CFU/ml) after treatment ([1]; concentration 0.1): 10.204 log10(CFU/ml) and 9.447 log10(CFU/ml) and 9.415 log10(CFU/ml)
- killing, average Δlog10(CFU/ml) ([1]; concentration 0.1, vs CFU before treatment): -0.305 log10(CFU/ml)
- log10(CFU/ml) after treatment ([1]; concentration 0.5): 9.146 log10(CFU/ml) and 9.322 log10(CFU/ml) and 9.255 log10(CFU/ml)
- killing, average Δlog10(CFU/ml) ([1]; concentration 0.5, vs CFU before treatment): 0.143 log10(CFU/ml)
- log10(CFU/ml) after treatment ([1]; concentration 2.5): 9.230 log10(CFU/ml) (2×) and 9.322 log10(CFU/ml)
- killing, average Δlog10(CFU/ml) ([1]; concentration 2.5, vs CFU before treatment): 0.123 log10(CFU/ml)
- killing, average Δlog10(CFU/ml) ([1]; drug concentration 10): 0.517 log10(CFU/ml)
- MIC (S. aureus DSM2569): 1 µM (≈ 0.551 µg/mL)
- Regrowth, OD600 at 6h or 8h after dilution into drug-free medium (non-growing UPEC CFT073 [2]; [5]): 0.612
- Regrowth, OD600 at 6h or 8h after dilution into drug-free medium (non-growing UPEC CFT073 [2]; [6]): 0.602
- Regrowth, OD600 at 6h or 8h after dilution into drug-free medium (non-growing UPEC CFT073 [2]; [7]): 0.603
- Regrowth, OD600 at 6h or 8h after dilution into drug-free medium (non-growing UPEC CFT073 [2]; [8]): 0.605
- Regrowth, OD600 at 6h or 8h after dilution into drug-free medium (non-growing UPEC CFT073 [2]; [9]): 0.549
- Regrowth, OD600 at 6h or 8h after dilution into drug-free medium (average) (non-growing UPEC CFT073 [2]; E. coli in 1:4 CA-MHB (pH 7.4), drug concentration 10): 0.188
- Regrowth, OD600 at 6h or 8h after dilution into drug-free medium (average) (non-growing UPEC CFT073 [2]; E. coli in 1:4 CA-MHB (pH 7.4), drug concentration 30): 0.074
- Regrowth, OD600 at 6h or 8h after dilution into drug-free medium (non-growing UPEC CFT073 [2]; [10]): 0.551
- Regrowth, OD600 at 6h or 8h after dilution into drug-free medium (non-growing UPEC CFT073 [2]; [11]): 0.543
- Regrowth, OD600 at 6h or 8h after dilution into drug-free medium (non-growing UPEC CFT073 [2]; [12]): 0.551
- Regrowth, OD600 at 6h or 8h after dilution into drug-free medium (non-growing UPEC CFT073 [2]; [13]): 0.544
- Regrowth, OD600 at 6h or 8h after dilution into drug-free medium (non-growing UPEC CFT073 [2]; [14]): 0.198
- Regrowth, OD600 at 6h or 8h after dilution into drug-free medium (average) (non-growing UPEC CFT073 [2]; E. coli in LPM (pH 5.5), drug concentration 10): 0.071
- Regrowth, OD600 at 6h or 8h after dilution into drug-free medium (average) (non-growing UPEC CFT073 [2]; E. coli in LPM (pH 5.5), drug concentration 30): 0.077
- EC50 (non-growing UPEC CFT073 [2]; 1:4 CA-MHB pH 7.4 (black curve), medium assigned by comparison with Dataset 1, read-out: EC50 (regrowth inhibition curve, Fig. S4)): 7.95 µM
- EC50 (non-growing UPEC CFT073 [2]; E. coli, pH 7.4, regrowth delay of non-growing bacteria, 1:4 CA-MHB, 24 h treatment, OD600 6 h after 2500-fold dilution, read-out: EC50): 7.67 µM
- EC50 (non-growing UPEC CFT073 [2]; LPM pH 5.5 (red curve), medium assigned by comparison with Dataset 1, read-out: EC50 (regrowth inhibition curve, Fig. S4)): 4.41 µM
- activity against non-growing UPEC in LPM (pH 5.5) compared to 1:4 CA-MHB (pH 7.4) (non-growing UPEC CFT073 [2]; regrowth delay and killing, Figs. 2 and 3): potentiated by the low pH
- log10(CFU/ml) after treatment (non-growing UPEC CFT073 [3]; [5]): 9.255 log10(CFU/ml) and 9.041 log10(CFU/ml) and 8.954 log10(CFU/ml)
- log10(CFU/ml) after treatment (non-growing UPEC CFT073 [3]; [6]): 9.041 log10(CFU/ml) and 9.176 log10(CFU/ml) and 9.301 log10(CFU/ml)
- log10(CFU/ml) after treatment (non-growing UPEC CFT073 [3]; [7]): 9.146 log10(CFU/ml) and 9.204 log10(CFU/ml) and 9.041 log10(CFU/ml)
- log10(CFU/ml) after treatment (non-growing UPEC CFT073 [3]; [8]): 9.000 log10(CFU/ml) and 8.903 log10(CFU/ml) and 8.778 log10(CFU/ml)
- log10(CFU/ml) after treatment (non-growing UPEC CFT073 [3]; [9]): 8.000 log10(CFU/ml) (2×) and 8.146 log10(CFU/ml)
- log10(CFU/ml) after treatment (non-growing UPEC CFT073 [3]; [10]): 7.301 log10(CFU/ml) and 7.568 log10(CFU/ml) and 7.886 log10(CFU/ml)
- log10(CFU/ml) after treatment (non-growing UPEC CFT073 [3]; [11]): 7.580 log10(CFU/ml) and 7.447 log10(CFU/ml) and 7.881 log10(CFU/ml)
- log10(CFU/ml) after treatment (non-growing UPEC CFT073 [3]; [12]): 7.447 log10(CFU/ml) and 7.663 log10(CFU/ml) and 7.778 log10(CFU/ml)
- log10(CFU/ml) after treatment (non-growing UPEC CFT073 [3]; [13]): 7.491 log10(CFU/ml) and 7.633 log10(CFU/ml) and 7.875 log10(CFU/ml)
- log10(CFU/ml) after treatment (non-growing UPEC CFT073 [3]; [14]): 7.380 log10(CFU/ml) and 7.663 log10(CFU/ml) and 7.863 log10(CFU/ml)
- log10(CFU/ml) after treatment ([4]; concentration 0.1): 8.505 log10(CFU/ml) and 8.653 log10(CFU/ml) and 8.820 log10(CFU/ml)
- log10(CFU/ml) after treatment ([4]; concentration 0.5): 8.114 log10(CFU/ml) and 8.380 log10(CFU/ml) and 8.643 log10(CFU/ml)
- log10(CFU/ml) after treatment ([4]; concentration 2.5): 6.322 log10(CFU/ml) and 7.690 log10(CFU/ml) and 8.255 log10(CFU/ml)
- reduction of non-growing S. aureus ([4]; at 10 µM, 24 h treatment): below the limit of detection
